Assays:
[1] = Oral bioavailability in Sprague-Dawley rat at 2 mg/kg; format: ADME, organism-based; conditions: in vivo
[2] = Volume of distribution at steady state in Sprague-Dawley rat; format: ADME, organism-based; conditions: in vivo, read-out: Vdss
[3] = Fraction unbound in Sprague-Dawley rat plasma at 5 ug/ml by equilibrium dialysis method; format: ADME, cell-free
[4] = Half life in Sprague-Dawley rat; format: ADME, organism-based; conditions: in vivo
[5] = Fraction unbound in human plasma at 5 ug/ml by equilibrium dialysis method; format: ADME, cell-free
[6] = species on record: Rattus norvegicus; assay: Unbound clearance in Sprague-Dawley rat at 5 ug/ml by equilibrium dialysis method; format: ADME, organism-based; conditions: in vivo
[7] = Intrinsic clearance in mouse liver microsomes; format: ADME; conditions: read-out: CLH
[8] = Intrinsic clearance in human liver microsomes; format: ADME; conditions: read-out: CLH
[9] = Clearance in Sprague-Dawley rat at 0.25 mg/kg, iv; format: ADME, organism-based; conditions: in vivo
[10] = Fraction unbound in mouse plasma at 5 ug/ml by equilibrium dialysis method; format: ADME, cell-free
[11] = Intrinsic clearance in rat liver microsomes; format: ADME; conditions: read-out: CLH
[12] = test system: Mus musculus; assay: In vivo inhibition of HGF-induced phosphorylation of MET in Balb/c mouse liver assessed as phosphorylated cMET level at 10 mg/kg administered via oral gavage followed by HGF injection 6 hrs post dose by electrochemiluminescence immunoassay relative to control; format: functional; design: scale not given: the % may be the effect or the level left
[13] = species on record: Canis familiaris; assay: Unbound clearance in Beagle dog at 5 ug/ml by equilibrium dialysis method; format: ADME, organism-based, Canis lupus familiaris; conditions: in vivo
[14] = Oral bioavailability in Beagle dog at 30 mg/kg; format: ADME, organism-based, Canis lupus familiaris; conditions: in vivo
[15] = Clearance in Beagle dog at 0.425 mg/kg, iv; format: ADME, organism-based, Canis lupus familiaris; conditions: in vivo
[16] = test system: Mus musculus; assay: In vivo inhibition of HGF-induced phosphorylation of MET in Balb/c mouse liver assessed as phosphorylated cMET level at 10 mg/kg administered via oral gavage followed by HGF injection 3 hrs post dose by electrochemiluminescence immunoassay relative to control; format: functional; design: scale not given: the % may be the effect or the level left
[17] = test system: Mus musculus; assay: In vivo inhibition of HGF-induced phosphorylation of MET in Balb/c mouse liver assessed as phosphorylated cMET level at 10 mg/kg administered via oral gavage followed by HGF injection 24 hrs post dose by electrochemiluminescence immunoassay relative to control; format: functional; design: scale not given: the % may be the effect or the level left
[18] = Oral bioavailability in Beagle dog at 10 mg/kg; format: ADME, organism-based, Canis lupus familiaris; conditions: in vivo
[19] = Half life in iv dosed Beagle dog; format: ADME, organism-based, Canis lupus familiaris; conditions: in vivo
[20] = test system: Mus musculus; assay: In vivo inhibition of HGF-induced phosphorylation of MET in Balb/c mouse liver assessed as phosphorylated cMET level at 10 mg/kg administered via oral gavage followed by HGF injection 1 hr post dose by electrochemiluminescence immunoassay relative to control; format: functional; design: scale not given: the % may be the effect or the level left
[21] = Volume of distribution at steady state in iv dosed Beagle dog; format: ADME, organism-based, Canis lupus familiaris; conditions: in vivo, read-out: Vdss
[22] = test system: Mus musculus; assay: In vivo inhibition of HGF-induced phosphorylation of MET in Balb/c mouse liver assessed as phosphorylated cMET level at 10 mg/kg administered via oral gavage followed by HGF injection 12 hrs post dose by electrochemiluminescence immunoassay relative to control; format: functional; design: scale not given: the % may be the effect or the level left
[23] = test system: Mus musculus; assay: In vivo inhibition of HGF-induced phosphorylation of MET in Balb/c mouse liver assessed as phosphorylated cMET level at 10 mg/kg administered via oral gavage followed by HGF injection 9 hrs post dose by electrochemiluminescence immunoassay relative to control; format: functional; design: scale not given: the % may be the effect or the level left
[24] = AUC(0 to infinity) in Beagle dog at 10 mg/kg,po; format: ADME, organism-based, Canis lupus familiaris; design: dose 10 mg/kg, route oral, time infinity; conditions: in vivo
[25] = AUC(0 to infinity) in Beagle dog at 30 mg/kg, po; format: ADME, organism-based, Canis lupus familiaris; design: dose 30 mg/kg, time infinity, route oral; conditions: in vivo
[26] = molecular target: T1, Cytochrome P450 3A4 (Homo sapiens, UniProt P08684); assay: Inhibition of CYP3A4 (unknown origin) in presence of NADPH; format: ADME; conditions: human
T1 sequence (P08684 whole entry): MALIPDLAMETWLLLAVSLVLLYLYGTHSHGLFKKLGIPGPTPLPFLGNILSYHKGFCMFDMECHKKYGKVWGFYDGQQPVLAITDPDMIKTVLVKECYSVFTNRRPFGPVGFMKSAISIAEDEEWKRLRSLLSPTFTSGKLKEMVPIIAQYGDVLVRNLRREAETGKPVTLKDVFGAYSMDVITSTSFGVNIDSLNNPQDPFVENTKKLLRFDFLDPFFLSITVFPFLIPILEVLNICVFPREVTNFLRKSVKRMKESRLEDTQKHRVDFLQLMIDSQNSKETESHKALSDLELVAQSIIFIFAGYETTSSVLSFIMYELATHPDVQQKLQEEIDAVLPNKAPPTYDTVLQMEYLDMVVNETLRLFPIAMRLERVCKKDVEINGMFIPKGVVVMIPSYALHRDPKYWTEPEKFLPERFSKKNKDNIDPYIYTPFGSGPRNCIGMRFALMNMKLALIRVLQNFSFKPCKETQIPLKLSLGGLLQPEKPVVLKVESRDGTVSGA

[27] = molecular target: T1, Cytochrome P450 3A4; assay: Inhibition of CYP3A4 (unknown origin) in absence of NADPH; format: ADME; conditions: human
[28] = test system: Plasma; assay: Unbound plasma concentration in mouse at 10 mg/kg, po measured at 9 hrs; format: ADME, organism-based; conditions: in vivo

SMILES | bioavailability [1] [%] | Vd [2] [L/kg] | fraction unbound at 5 ug/ml [3] | half-life [4] [min] | fraction unbound at 5 ug/ml [5] | CL free [6] [L/h/kg] | microsomal CLint [7] [µL/min/mg] | microsomal CLint [8] [µL/min/mg] | clearance [9] [mL/min/kg] | fraction unbound at 5 ug/ml [10] | microsomal CLint [11] [µL/min/mg] | Activity [12] [%] | Activity [16] [%] | Activity [17] [%] | Activity [20] [%] | Activity [22] [%] | Activity [23] [%] | further results
C[C@H](c1nnc2c(F)cc(-c3cnn(C)c3)cn12)n1ccc2ncccc2c1=O | 31 | 0.7 | 0.271 | 240 | 0.478 | 1 | < 5 | < 5 | 4.67 | 0.376 | 8 |  |  |  |  |  |  | 
COCCOc1cnc2ccn([C@H](C)c3nnc4ccc(-c5cc(C)no5)cn34)c(=O)c2c1 | 59 | 1 | 0.19 | 144 | 0.338 | 1.5 | 23 | 7 | 4.83 | 0.435 | 9 | 108 | 109 | 50 | 109 | 95 | 108 | CL free [13]: 0.68 L/h/kg; bioavailability [14]: 87%; clearance [15]: 5 mL/min/kg; bioavailability [18]: 53%; half-life [19]: 258 min; Vd [21]: 1.4 L/kg; AUC(0-inf) [24]: 19300 ng·h/mL; AUC(0-inf) [25]: 94100 ng·h/mL
COc1cnc2ccn([C@H](C)c3nnc4c(F)cc(-c5cc(C)no5)cn34)c(=O)c2c1 | 31 | 0.5 |  | 66 |  |  |  |  | 7.67 |  |  |  |  |  |  |  |  | 
Cc1cc(-c2cc(F)c3nnc([C@@H](C)n4ccc5ncccc5c4=O)n3c2)on1 | 44 | 0.4 | 0.196 | 48 | 0.32 | 1.9 | < 5 | 14 | 6.33 | 0.245 | 8 | 98 | 101 | 12 | 100 | 40 | 91 | TDI [26]: Not Active; TDI [27]: Not Active; Cp(f) [28]: 193 nM
COc1cnc2ccn([C@H](C)c3nnc4ccc(-c5cnn(C)c5)cn34)c(=O)c2c1 | 36 | 1.2 | 0.206 | 102 | 0.286 | 3.2 | 7 | < 5 | 10.8 | 0.409 | 9 |  |  |  |  |  |  | 
COCCOc1cnc2ccn([C@H](C)c3nnc4ccc(-c5cnn(C)c5)cn34)c(=O)c2c1 | 25 | 1.3 | 0.296 | 108 | 0.498 | 2.4 | 7 | 8 | 11.7 | 0.424 | < 5 |  |  |  |  |  |  | 

Reference: ChEMBL document CHEMBL3784965, “Discovery of (R)-6-(1-(8-Fluoro-6-(1-methyl-1H-pyrazol-4-yl)-[1,2,4]triazolo[4,3-a]pyridin-3-yl)ethyl)-3-(2-methoxyethoxy)-1,6-naphthyridin-5(6H)-one (AMG 337), a Potent and Selective Inhibitor of MET with High Unbound Target Coverage and Robust In Vivo Antitumor Activity” (J Med Chem, 2016)
